Laboratory results taken from US11352322B2, “Cyclopropyl-amide compounds as dual LSD1/HDAC inhibitors” (Jubilant Epicore LLC, priority 2016, dated 2022).
Where a name gives a salt, the structure may show the parent alone. Read-outs that look alike come from different tables or passages of the source.

What was measured:
[1] = biological target: LSD1 (Homo sapiens (Human), UniProt O60341); assay: TR-FRET Assay for LSD1
Experimental: TR-FRET Assay for LSD1 (Perkin Elmer)
Tranylcypromine (TCP), LSD1 inhibitor was procured from Selleckchem. […] Stop Solution containing 300 μM tranylcypromine in 1× LANCE Detection Buffer was added to the wells and incubated for 5 min at RT. Then, Detection mix containing 2 nM Eu-Ab and 50 nM ULight-Streptavidin in 1× LANCE Detection Buffer was prepared and added to the reaction mix. This mixture was incubated for 1 hour at room temperature.

[2] = biological target: HDAC6 human recombinant enzyme (Homo sapiens (Human), UniProt Q9UBN7); assay: Histone Deacetylase Assay (BPS Biosciences), HDAC6; type: biochemical
Excerpt: Histone Deacetylase Assay (BPS Biosciences)
Histone deacetylase assay was done as per manufacturer's instructions.

[3] = Metabolic stability in liver microsomes, MLM; conditions: 1 μM, NADPH
Experimental: (§1) The microsomal suspension was prepared by adding liver microsomes to 100 mM potassium phosphate buffer (pH7.4) to give a final protein concentration of 0.5 mg/mL. The stock solution of NCE (10 mM in DMSO) was added to the microsomes to provide a final concentration of 1 μM. […] Samples were vortexed and centrifuged at 5,000 rpm for 10 min to remove proteins. Supernatant were analyzed on LC-MS/MS.

[4] = test system: MM1S; assay: Anticancer activity: Alamar Blue assay, MM1S; type: cell-based; conditions: Homo sapiens, MM1.S, read-out: MM1S EC50
Experimental: Cells were seeded at 5000 cells/per well in 96-well tissue culture plate and incubated at 37° C./5% CO2. After 16-24 hours, fresh media was added to the wells. Compounds were then (1% DMSO conc.) added to the cells at 10 concentrations ranging from 10-0.0005 uM prepared in 3-fold serial dilutions. Cells were incubated for 68-72 h at 37° C./5% CO2. Alamar Blue™ reagent was added and incubated for 1-3 hours at 37° C./5% CO2. Plates were read on fluorescence reader at 540 nm excitation, 590 nm emission wave lengths.

[5] = Metabolic stability in liver microsomes, HLM; conditions: 1 μM, NADPH
Experimental: as §1

HDAC6 human recombinant enzyme, sequence (Q9UBN7 whole entry): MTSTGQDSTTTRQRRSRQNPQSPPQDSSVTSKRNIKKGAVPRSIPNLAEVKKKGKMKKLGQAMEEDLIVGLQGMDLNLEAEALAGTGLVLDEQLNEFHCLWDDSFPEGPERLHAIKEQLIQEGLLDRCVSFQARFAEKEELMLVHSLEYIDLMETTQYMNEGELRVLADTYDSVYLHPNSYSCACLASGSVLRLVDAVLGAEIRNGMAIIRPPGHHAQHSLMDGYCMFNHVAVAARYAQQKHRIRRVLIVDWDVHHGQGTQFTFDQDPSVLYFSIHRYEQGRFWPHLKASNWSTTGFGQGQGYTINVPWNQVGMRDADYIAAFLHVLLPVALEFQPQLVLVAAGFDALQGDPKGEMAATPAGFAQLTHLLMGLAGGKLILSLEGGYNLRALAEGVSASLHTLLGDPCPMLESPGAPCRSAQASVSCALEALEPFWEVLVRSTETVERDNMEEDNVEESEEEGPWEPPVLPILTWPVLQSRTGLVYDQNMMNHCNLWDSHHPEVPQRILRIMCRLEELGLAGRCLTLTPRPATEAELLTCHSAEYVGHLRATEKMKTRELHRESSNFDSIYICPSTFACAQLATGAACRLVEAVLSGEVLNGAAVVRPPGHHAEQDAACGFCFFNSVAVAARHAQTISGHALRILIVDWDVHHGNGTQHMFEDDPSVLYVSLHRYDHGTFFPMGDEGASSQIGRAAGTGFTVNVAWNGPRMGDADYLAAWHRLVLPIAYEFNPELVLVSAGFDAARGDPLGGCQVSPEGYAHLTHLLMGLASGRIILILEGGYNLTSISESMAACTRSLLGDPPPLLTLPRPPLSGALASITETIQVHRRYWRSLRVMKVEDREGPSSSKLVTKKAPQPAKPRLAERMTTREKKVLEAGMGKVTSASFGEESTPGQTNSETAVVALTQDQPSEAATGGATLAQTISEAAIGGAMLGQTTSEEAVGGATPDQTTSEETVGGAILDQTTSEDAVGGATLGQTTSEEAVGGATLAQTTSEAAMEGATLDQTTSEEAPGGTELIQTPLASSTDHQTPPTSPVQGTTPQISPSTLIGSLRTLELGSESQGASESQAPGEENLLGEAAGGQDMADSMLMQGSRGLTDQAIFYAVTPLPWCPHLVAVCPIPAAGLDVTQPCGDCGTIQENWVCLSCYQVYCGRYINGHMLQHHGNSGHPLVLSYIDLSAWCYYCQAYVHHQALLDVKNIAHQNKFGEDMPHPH

| EC50 ([4]; MM1S cells) | IC50 [1] | Structure (SMILES) | IC50 ([1]; read-out: LSD1 IC50) | IC50 [2] | Metabolic stability MLM % remaining in 30 min [3] | Metabolic stability HLM % remaining in 30 min [5] | EC50 [4] |
| --- | --- | --- | --- | --- | --- | --- | --- |
| 94 nM |  | CC(NC1CC1c1ccccc1)[C@H]1CC[C@H](C(=O)NO)CC1 (stereo partly drawn) [Example 34, (1S,4R)—N-hydroxy-4-((1S)-1-((2-phenylcyclopropyl)amino)ethyl)cyclohexanecarboxamide TFA Salt] | 31 nM | > 1000 nM | 79% | 90% |  |
|  |  | O=C(NO)c1ccc(CCCN2CCC(NC3CC3c3ccccc3)CC2)cc1 (centres unmarked) [Example 44, N-hydroxy-4-(3-(4-((2-phenylcyclopropyl)amino)piperidin-1-yl)propyl)benzamide TFA Salt] | 13 nM | 65 nM | 55% | 71% | 45 nM |
| 25 nM |  | O=C(NO)c1ccc(CCCN2CC(CNC3CC3c3ccc(F)cc3)C2)cc1 (centres unmarked) [Example 48, 4-(3-(3-(((2-(4-fluorophenyl)cyclopropyl)amino)methyl)azetidin-1-yl)propyl)-N-hydroxy benzamide TFA Salt] | 29 nM | 184 nM | < 5% | 85% |  |
|  |  | O=C(NO)c1ccc(CCCN2CC(CNC3CC3c3ccc(-c4ccc(F)cc4)cc3)C2)cc1 (centres unmarked) [Example 58, 4-(3-(3-(((2-(4′-fluoro-[1,1′-biphenyl]-4-yl)cyclopropyl)amino)methyl)azetidin-1-yl)propyl)-N-hydroxybenzamide TFA Salt] | 25 nM | 43 nM | 91% | 85% | 15 nM |
| 7 nM |  | Cn1cc(-c2ccc(C3CC3NCC3CCN(CCCc4ccc(C(=O)NO)cc4)CC3)cc2)cn1 (centres unmarked) [Example 62, N-hydroxy-4-(3-(4-(((2-(4-(1-methyl-1H-pyrazol-4-yl)phenyl)cyclopropyl)amino)methyl)piperidin-1-yl)propyl) benzamide TFA Salt] | 43 nM | 66 nM | 66% | 77% |  |
| 11 nM | 59 nM | Cc1noc(C)c1-c1ccc(C2CC2NCC2CCN(CCCc3ccc(C(=O)NO)cc3)CC2)cc1.O=C(O)C(F)(F)F (centres unmarked) [Example 64, 4-(3-(4-(((2-(4-(3,5-dimethylisoxazol-4-yl)phenyl)cyclopropyl)amino)methyl)piperidin-1-yl)propyl)-N-hydroxybenzamide TFA Salt] |  | 58 nM | 77% | 82% |  |
|  |  | O=C(NO)c1ccc(CN2CCc3ccc(CNC4CC4c4ccc(F)cc4)cc3C2)cc1 (centres unmarked) [Example 79, 4-((7-(((2-(4-fluorophenyl)cyclopropyl)amino)methyl)-3,4-dihydroisoquinolin-2(1H)-yl)methyl)-N-hydroxybenzamide TFA Salt] | 79 nM | 24 nM | 6% | 18% | 39 nM |
|  |  | O=C(NO)c1ccc(CN2CCn3cc(CNC4CC4c4ccc(F)cc4)nc3C2)cc1 (centres unmarked) [Example 80, 4-((2-(((2-(4-fluorophenyl)cyclopropyl)amino)methyl)-5,6-dihydroimidazo[1,2-a]pyrazin-7(8H)-yl)methyl)-N-hydroxybenzamide TFA Salt] | 1500 nM | 68 nM | 87% | 82% | 331 nM |
| 22 nM |  | CN1C(=O)C(C)(C)c2cc(C3CC3NCC3CCN(CCCc4ccc(C(=O)NO)cc4)CC3)ccc21 (centres unmarked) [Example 81, N-hydroxy-4-(3-(4(((2-(1,3,3,-trimethyl-2-oxoindoline-5-yl)cyclopropyl)amino)methyl)piperidine-1-yl)propyl)benzamide TFA Salt] | 394 nM | 125 nM | >95/>95% | >95/>95% |  |
|  |  | O=C(NO)c1ccc(CCC(=O)N2CCC(CNC3CC3c3ccccc3)CC2)cc1 (centres unmarked) [Example 82, N-hydroxy-4-(3-oxo-3-(4-(((2-phenylcyclopropyl)amino)methyl)piperidin-1-yl)propyl)benzamide TFA Salt] | 94 nM | 35 nM | 72% | 77% | 619 nM |
|  |  | O=C(NO)c1ccc(C(=O)NCCN2CCC(CNC3CC3c3ccc(F)c(F)c3)CC2)cc1 (centres unmarked) [Example 90, N1-(2-(4-(((2-(3,4-difluorophenyl)cyclopropyl)amino)methyl)piperidin-1-yl)ethyl)-N4-hydroxyterephthalamide TFA Salt] | 21 nM | 170 nM | 93% | 80% | 339 nM |
|  |  | O=C(NO)c1ccc(OCCNC2CC2c2ccccc2)cc1 (centres unmarked) [Example 95, N-hydroxy-4-(2-((2-phenylcyclopropyl)amino)ethoxy)benzamide TFA Salt] | 33 nM | 350 nM | 55% | 75% | 144 nM |
|  |  | O=C(NO)c1ccc(OCCN2CCC(CNC3CC3c3ccccc3)CC2)cc1 (centres unmarked) [Example 99, N-hydroxy-4-(2-(4-(((2-phenylcyclopropyl)amino)methyl)piperidin-1-yl)ethoxy)benzamide TFA Salt] | 4 nM | 51 nM | 76% | 63% | 27 nM |
|  |  | O=C(NO)c1cnc(NCCN2CCC(CNC3CC3c3ccc(F)cc3)CC2)nc1 (centres unmarked) [Example 102, 2-((2-(4-(((2-(4-fluorophenyl)cyclopropyl)amino)methyl)piperidin-1-yl)ethyl)amino)-N-hydroxypyrimidine-5-carboxamide TFA Salt] | 22 nM | 75 nM | >99/>99% | >99/>99% | 5 nM |
|  |  | O=C(NO)c1cc2c(s1)CCN(C(=O)CCCN1CCC(CNC3CC3c3ccc(F)cc3)CC1)C2 (centres unmarked) [Example 106, 5-(4-(4-(((2-(4-fluorophenyl)cyclopropyl)amino)methyl)piperidin-1-yl)butanoyl)-N-hydroxy-4,5,6,7-tetrahydrothieno[3,2-c]pyridine-2-carboxamide TFA Salt] | 26 nM | 35 nM | 92% | 74% | 14 nM |
| > 10000 nM | 26 nM | O=C(NO)c1csc(CCCN2CCC(CNC3CC3c3ccccc3)CC2)n1.O=C(O)C(F)(F)F (centres unmarked) [Example 110, N-hydroxy-2-(3-(4-(((2-phenylcyclopropyl)amino)methyl)piperidin-1-yl)propyl)thiazole-4-carboxamide TFA Salt] |  | > 10000 nM | 95% | 88% |  |
| > 10000 nM | 26 nM | O=C(NO)c1coc(CCCN2CCC(CNC3CC3c3ccccc3)CC2)n1.O=C(O)C(F)(F)F (centres unmarked) [Example 113, N-hydroxy-2-(3-(4-(((2-phenylcyclopropyl)amino)methyl)piperidin-1-yl)propyl)oxazole-4-carboxamide TFA Salt] |  | > 10000 nM | 76% | 78% |  |
| 10 nM |  | O=C(NO)c1ccc(/C=C/C(=O)N2CCC(CN[C@H]3C[C@@H]3c3ccc(F)cc3)CC2)cc1 [Example 115, 4-((E)-3-(4-((((1S,2R)-2-(4-fluorophenyl)cyclopropyl)amino)methyl)piperidin-1-yl)-3-oxoprop-1-en-1-yl)-N-hydroxybenzamide TFA Salt] | 65 nM | 53 nM | 45% | 75% |  |
|  |  | O=C(NO)c1ccc(/C=C/C(=O)N2CCC(CNC3CC3c3ccc(-c4cncnc4)cc3)CC2)cc1 (centres unmarked) [Example 117, (E)-N-hydroxy-4-(3-oxo-3-(4-(((2-(4-(pyrimidin-5-yl)phenyl)cyclopropyl)amino)methyl)piperidin-1-yl)prop-1-en-1-yl)benzamide TFA Salt] | 46 nM | 74 nM | 82% | 80% | 460 nM |
|  |  | O=C(NO)c1ccc(/C=C/C(=O)N2CC(CNC3CC3c3ccc(F)cc3)C2)cc1 (centres unmarked) [Example 118, (E)-4-(3-(3-(((2-(4-fluorophenyl)cyclopropyl)amino)methyl)azetidin-1-yl)-3-oxoprop-1-en-1-yl)-N-hydroxybenzamide TFA Salt] | 37 nM | 58 nM | 76% | 77% | 21 nM |
|  |  | Cn1cc(-c2ccc(C3CC3NCC3CN(C(=O)/C=C/c4ccc(C(=O)NO)cc4)C3)cc2)cn1 (centres unmarked) [Example 119, (E)-N-hydroxy-4-(3-(3-(((2-(4-(1-methyl-1H-pyrazol-4-yl)phenyl)cyclopropyl)amino)methyl)azetidin-1-yl)-3-oxoprop-1-en-1-yl)benzamide TFA Salt] | 19 nM | 49 nM | 49% | 72% | 772 nM |

| Structure (SMILES) | EC50 ([4]; MM1S cells) | IC50 [1] | IC50 ([1]; read-out: LSD1 IC50) | IC50 [2] | Metabolic stability MLM % remaining in 30 min [3] | Metabolic stability HLM % remaining in 30 min [5] | EC50 [4] |
| --- | --- | --- | --- | --- | --- | --- | --- |
| Nc1ccccc1NC(=O)c1ccc(CCCN2CC3(CC(NC4CC4c4ccccc4)C3)C2)cc1 (centres unmarked) [Example 127, N-(2-aminophenyl)-4-(3-(6-((2-phenylcyclopropyl)amino)-2-azaspiro[3.3]heptan-2-yl)propyl)benzamide TFA Salt] | 126 nM |  | 764 nM | > 10000 nM | 19% | 17% |  |
